Test results reported in the supplement of paper PMC10307832.

What was measured:
Experiment in all cases: relative viability (nuclei count vs DMSO), 5 days (fraction); higher = more cells survive
GSK-J4 + Lapatinib = compound: CCOC(=O)CCNc1cc(N2CCc3ccccc3CC2)nc(-c2ccccn2)n1 [GSK-J4] + CS(=O)(=O)CCNCc1ccc(-c2ccc3ncnc(Nc4ccc(OCc5cccc(F)c5)c(Cl)c4)c3c2)o1 [Lapatinib] (partner 2 µM)
Method in brief: (§1)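 A single step with final 0.05% Triton X-100, 1% formaldehyde and 1 ug/ml Hoechst fixed the cells and stained nuclei 5 days after treatment. Lung cancer cell lines in 1536-well plates had been treated by pin tool the day after seeding with one drug alone or a fixed anchor-drug dose plus five library-drug doses (not always all listed) in √10 steps, and nuclei were counted on 4× images. Relative viability is the ratio of nuclei in treated wells to nuclei in vehicle wells, taken as the median of duplicate plates.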

GSK-J4 + Linsitinib = compound: CCOC(=O)CCNc1cc(N2CCc3ccccc3CC2)nc(-c2ccccn2)n1 [GSK-J4] + C[C@]1(O)C[C@@H](c2nc(-c3ccc4ccc(-c5ccccc5)nc4c3)c3c(N)nccn32)C1 [Linsitinib] (partner 1 µM)
Method in brief: as §1

AZ3146 + Trametinib = compound: CN1CCC(CC1)OC2=CC(=C(C=C2)NC3=NC=C4C(=N3)N(C(=O)N4C)C5CCCC5)OC [AZ3146] + CC(=O)Nc1cccc(-n2c(=O)n(C3CC3)c(=O)c3c(Nc4ccc(I)cc4F)n(C)c(=O)c(C)c32)c1 [Trametinib] (partner 0.02 µM)
Method in brief: as §1

AZ3146 + Vorinostat = compound: CN1CCC(CC1)OC2=CC(=C(C=C2)NC3=NC=C4C(=N3)N(C(=O)N4C)C5CCCC5)OC [AZ3146] + O=C(CCCCCCC(=O)Nc1ccccc1)NO [Vorinostat] (partner 1 µM)
Method in brief: as §1

UMC-11
relative viability (GSK-J4 + Lapatinib; first compound 0.5 µM): 1.07 | relative viability (GSK-J4 + Lapatinib; first compound 1.581 µM): 0.465 | relative viability (GSK-J4 + Lapatinib; first compound 5 µM): 0.611 | relative viability (GSK-J4 + Lapatinib; first compound 15.81 µM): 1.06 | relative viability (GSK-J4 + Lapatinib; first compound 50 µM): 0.808 | relative viability (GSK-J4 + Linsitinib; first compound 0.5 µM): 0.97 | relative viability (GSK-J4 + Linsitinib; first compound 1.581 µM): 0.967 | relative viability (GSK-J4 + Linsitinib; first compound 5 µM): 1.02 | relative viability (GSK-J4 + Linsitinib; first compound 15.81 µM): 0.983 | relative viability (GSK-J4 + Linsitinib; first compound 50 µM): 0.572 | relative viability (AZ3146 + Trametinib; first compound 0.08 µM): 0.575 | relative viability (AZ3146 + Trametinib; first compound 0.253 µM): 0.725 | relative viability (AZ3146 + Trametinib; first compound 0.8 µM): 0.629 | relative viability (AZ3146 + Trametinib; first compound 2.53 µM): 0.626 | relative viability (AZ3146 + Trametinib; first compound 8 µM): 0.313 | relative viability (AZ3146 + Vorinostat; first compound 0.08 µM): 0.299 | relative viability (AZ3146 + Vorinostat; first compound 0.253 µM): 0.389 | relative viability (AZ3146 + Vorinostat; first compound 0.8 µM): 0.406 | relative viability (AZ3146 + Vorinostat; first compound 2.53 µM): 0.267 | relative viability (AZ3146 + Vorinostat; first compound 8 µM): 0.175
